Measured values from publication PMC11224109, “Synthesis and preclinical evaluation of novel ^18F-vancomycin-based tracers for the detection of bacterial infections using positron emission tomography” (European Journal of Nuclear Medicine and Molecular Imaging, 2024).

What was measured:
[1] = test system: S. aureus USA300 MRSA strain; assay: Competition with unlabeled vancomycin; type: binding, Staphylococcus aureus; conditions: for Tracer binding to S. aureus at a concentration of 1024 µg/mL vancomycin / Tracer binding to S. aureus at vancomycin concentrations below 2 µg/mL / Tracer binding to S. aureus at vancomycin concentrations of up to 64 µg/mL: S. aureus USA300, OD600 0.2, 125 kBq tracer per mL, 30 min incubation, gamma counter
Protocol: [^18F]FB-vancomycin was excluded due to its limited in vitro and in vivo stability. On the day of the experiment, a fresh culture was started in 10 mL of TSB and grown to an OD600 of 2.0. […] Bacteria were added to the dilutions to obtain a final OD600 of 0.2 and the vial was briefly vortexed to ensure proper mixing. Tracer was added (125 kBq per mL, 40.3 pg and 0.5 pg of [^18F]BODIPY-FL-vancomycin and [^18F]PQ-VE1-vancomycin, respectively) and the vial was vortexed again. After 30 min incubation, aliquots were collected in 2 mL Eppendorf tubes and washed twice with PBS by centrifugation. […] Measurements were corrected for background and decay. Results are reported as 10^3 counts per s (kBq).

Gram-positive bacteria = assay: Tracer binding to test panel of clinically relevant bacteria, Gram-positive; design: species or system C. acnes, E. faecalis, S. aureus, S. capitis, S. epidermidis; conditions: summary table
Protocol: Clinical isolates of E. cloacae, S. capitis, S. aureus, as well as type strains of E. coli, E. faecalis, K. pneumoniae, P. aeruginosa and S. epidermidis were grown under aerobic conditions in brain heart infusion broth. A clinical isolate of the anaerobic bacterium C. acnes was grown on plate in an anaerobic chamber, and subsequently cultured in liquid medium with minimal headspace. Samples from fresh bacterial cultures were normalized to an OD600 of 1.0, fixed in PBS with 0.5% paraformaldehyde (PFA) for 10 min at room temperature, and resuspended in 1 mL sterile PBS. The fixated bacteria were incubated with tracer (133 kBq per mL, 42.8 pg and 0.6 pg of [^18F]BODIPY-FL-vancomycin and [^18F]PQ-VE1-vancomycin, respectively) and washed twice with sterile PBS. […] Measurements were corrected for background and decay. Results are reported as percentage of the total tracer added.

[2] = test system: S. epidermidis ATCC 35,984; conditions: ATCC 35, 17 h
Protocol: From a single colony an overnight culture was inoculated in Mueller Hinton Broth (MHB) and incubated overnight. On the day of the experiment, a fresh culture was started in 10 mL of MHB until exponential phase was reached. From this, the culture was diluted to an OD600 of 0.01 for the MIC experiment. […] Growth was recorded using a BioTeK Synergy2 microplate spectrophotometer (Agilent, Santa Clara, United States).

[3] = up to 120 min, previously shown; cited from earlier work
Protocol: Tracer stability was assessed in both PBS and human plasma. […] In contrast, > 90% of the [^18F]BODIPY-FL-vancomycin remained stable in PBS and plasma for up to 120 min, as was also previously shown for [^18F]PQ-VE1-vancomycin [44].

E. coli = conditions: previously reported; cited from earlier work
Protocol: (§1) In vitro binding of [^18F]BODIPY-FL-vancomycin and [^18F]FB-vancomycin to the Gram-positive bacterium S. aureus and the Gram-negative bacterium E. coli was assayed by incubating the bacteria with either one of the two tracers and collecting samples at fixed time intervals to determine the radioactivity associated with the bacteria.

S. aureus = conditions: previously reported; cited from earlier work
Protocol: as §1

With `Cc1cc(C)n2c1C=C1C=CC(CCC(=O)N(C)[C@H](CC(C)C)C(=O)N[C@H]3C(=O)N[C@@H](CC(N)=O)C(=O)N[C@H]4C(=O)N[C@H]5C(=O)N[C@H](C(=O)N[C@H](C(=O)O)c6cc(O)cc(O)c6-c6cc5ccc6O)[C@H](O)c5ccc(c(Cl)c5)Oc5cc4cc(c5O[C@@H]4O[C@H](CO)[C@@H](O)[C@H](O)[C@H]4O[C@H]4C[C@](C)(N)[C@H](O)[C@H](C)O4)Oc4ccc(cc4Cl)[C@H]3O)=[N+]1[B-]2(F)F` [[^18F]BODIPY-FL-vancomycin] as the compound, how does the “Vancomycin concentrations at which tracer binding is outcompeted, compared with [^18F]PQ-VE1-vancomycin” value ([1]; S. aureus USA300, 30 min incubation) read?
The value was “slightly lower”.

What about the “Tracer binding to S. aureus at a concentration of 1024 µg/mL vancomycin” value [1] of the same compound?
The value was “reduced to baseline”.

And the “Tracer binding to S. aureus at vancomycin concentrations below 2 µg/mL” value [1]?
Its value is “not significantly inhibited”.

What about the “Tracer binding to S. aureus at vancomycin concentrations of up to 64 µg/mL” value [1] of the same compound?
The value was “signal over background was still detected”.

And the “Binding to Gram-positive bacteria in vitro” value (Gram-positive bacteria)?
Its value is “LogD7.4 -1.72. Am 5.35 GBq/µmol. MIC 16 µg/mL. Binding to Gram-positive bacteria in vitro”.

What about the MIC [2] of the same compound?
The MIC was 16 µg/mL.

Which results are given for `CN[C@H](CC(C)C)C(=O)N[C@H]1C(=O)N[C@@H](CC(N)=O)C(=O)N[C@H]2C(=O)N[C@H]3C(=O)N[C@H](C(=O)N[C@H](C(=O)O)c4cc(O)cc(O)c4-c4cc3ccc4O)[C@H](O)c3ccc(c(Cl)c3)Oc3cc2cc(c3O[C@@H]2O[C@H](CO)[C@@H](O)[C@H](O)[C@H]2O[C@H]2C[C@](C)(NC(=O)c3ccc4c5c(c6ccccc6c4c3)OCC(OCCF)O5)[C@H](O)[C@H](C)O2)Oc2ccc(cc2Cl)[C@H]1O` (some centres unmarked) [[^18F]PQ-VE1-vancomycin]?
Tracer binding to S. aureus at a concentration of 1024 µg/mL vancomycin [1]: reduced to baseline; Tracer binding to S. aureus at vancomycin concentrations below 2 µg/mL [1]: not significantly inhibited; Tracer binding to S. aureus at vancomycin concentrations of up to 64 µg/mL [1]: signal over background was still detected; Binding to Gram-positive bacteria in vitro (Gram-positive bacteria): Binding to Gram-positive bacteria in vitro; Tracer remaining stable in PBS [3]: over 90%; Tracer remaining stable in human plasma [3]: over 90%; Binding to E. coli (E. coli): not to E. coli; Binding to S. aureus (S. aureus): rapid and selective binding to S. aureus
